Literature values as cited in patent US11298325B2, “Pharmaceutical compositions of pimobendan” (Boehringer Ingelheim Vetmedica GmbH, priority 2013, dated 2022).

Legend:
[1] = low solubility and low permeability
[2] = pH 5

Class in the Biopharmaceutics Classification Systems [1]: Class IV
Solubility in water [2]: about 1 mg/liter
Structure (SMILES): COc1ccc(-c2nc3ccc(C4=NNC(=O)CC4C)cc3[nH]2)cc1 (centres unmarked) [pimobendan]
